Reference: patent US7928078B2, “Conjugates of immune cell specific macrolide compounds with anti-inflammatory compounds for improved cellular targeting of anti-inflammatory therapy” (GlaxoSmithKline Istrazivacki Centar Zagreb D.O.O., priority 2001, dated 2011)

Tested on: not given
Assay: not given
Conditions: not given

| Structure (SMILES) | melting point |
| --- | --- |
| CC[C@H]1OC(=O)[C@H](C)[C@@H](O)[C@H](C)[C@@H](O[C@@H]2O[C@H](C)C[C@@H](N(C)C)[C@H]2OC(=O)CCCCOC(=O)[C@@]2(O)[C@H](C)CC3C4C[C@H](F)C5=CC(=O)C=C[C@]5(C)C4[C@@H](O)C[C@@]32C)[C@](C)(O)C[C@@H](C)CN(C)[C@H](C)[C@@H](O)[C@]1(C)O (stereo partly drawn) | 145 to 151 °C |
| CC[C@H]1OC(=O)[C@H](C)[C@@H](O)[C@H](C)[C@@H](O[C@@H]2O[C@H](C)C[C@@H](N(C)C)[C@H]2O)[C@](C)(O)C[C@@H](C)CN(CCCNC(=O)[C@@]2(O)[C@H](C)CC3C4C[C@H](F)C5=CC(=O)C=C[C@]5(C)[C@@]4(F)[C@@H](O)C[C@@]32C)[C@H](C)[C@@H](O)[C@]1(C)O (stereo partly drawn) | 182 °C |
| CC[C@H]1OC(=O)[C@H](C)[C@@H](O[C@@H]2C[C@](C)(OC)[C@H](O)C(C)O2)[C@H](C)[C@@H](O[C@@H]2O[C@H](C)C[C@@H](N(C)C)[C@H]2OC(=O)CCCCOC(=O)[C@@]2(O)[C@H](C)CC3C4CCC5=CC(=O)C=C[C@]5(C)[C@@]4(F)[C@@H](O)C[C@@]32C)[C@](C)(O)C[C@@H](C)CN(C)[C@H](C)[C@@H](O)[C@]1(C)O (stereo partly drawn) | 161 to 168 °C |
| CC[C@H]1OC(=O)C(C)[C@@H](O)[C@H](C)[C@@H](O[C@@H]2O[C@H](C)C[C@@H](N(C)C)[C@H]2O)[C@](C)(O)C[C@@H](C)CN(CCCNC(=O)[C@@]2(O)[C@H](C)CC3C4C[C@H](F)C5=CC(=O)C=C[C@]5(C)[C@@]4(Cl)[C@@H](O)C[C@@]32C)[C@H](C)[C@@H](O)[C@]1(C)O (stereo partly drawn) | 130 to 132 °C |
| CC[C@H]1OC(=O)[C@H](C)[C@@H](O[C@@H]2C[C@](C)(OC)[C@H](O)C(C)O2)[C@H](C)[C@@H](O[C@@H]2O[C@H](C)C[C@@H](N(C)C)[C@H]2O)[C@](C)(O)C[C@@H](C)CN(CCCNC(=O)[C@@]23OC(C)(C)O[C@@H]2CC2C4C[C@H](F)C5=CC(=O)C=C[C@]5(C)[C@@]4(F)[C@@H](O)C[C@@]23C)[C@H](C)[C@@H](O)[C@]1(C)O (stereo partly drawn) | 178 °C |
| CC[C@H]1OC(=O)[C@H](C)[C@@H](O)[C@H](C)[C@@H](O[C@@H]2O[C@H](C)C[C@@H](N(C)C)[C@H]2O)[C@](C)(O)C[C@@H](C)CN(CCCNC(=O)[C@@]2(O)CCC3C4CCC5=CC(=O)CC[C@]5(C)C4[C@@H](O)C[C@@]32C)[C@H](C)[C@@H](O)[C@]1(C)O (stereo partly drawn) | 160 to 161 °C |
| CC[C@H]1OC(=O)[C@H](C)[C@@H](O[C@@H]2C[C@](C)(OC)[C@H](O)C(C)O2)[C@H](C)[C@@H](O[C@@H]2O[C@H](C)C[C@@H](N(C)C)[C@H]2OC(=O)CCCCOC(=O)[C@@]2(O)[C@H](C)CC3C4C[C@H](F)C5=CC(=O)C=C[C@]5(C)[C@@]4(Cl)[C@@H](O)C[C@@]32C)[C@](C)(O)C[C@@H](C)CN(C)[C@H](C)[C@@H](O)[C@]1(C)O (stereo partly drawn) | 91 to 99 °C |
| CC[C@H]1OC(=O)[C@H](C)[C@@H](O)[C@H](C)[C@@H](O[C@@H]2O[C@H](C)C[C@@H](N(C)C)[C@H]2O)[C@](C)(O)C[C@@H](C)CN(CCCNC(=O)[C@@]2(O)[C@H](C)CC3C4CCC5=CC(=O)C=C[C@]5(C)[C@@]4(F)[C@@H](O)C[C@@]32C)[C@H](C)[C@@H](O)[C@]1(C)O (stereo partly drawn) | 260 to 265 °C |
| CC[C@H]1OC(=O)[C@H](C)[C@@H](O)[C@H](C)[C@@H](O[C@@H]2O[C@H](C)C[C@@H](N(C)C)[C@H]2OC(=O)CCCCOC(=O)[C@@]2(O)[C@H](C)CC3C4CCC5=CC(=O)C=C[C@]5(C)[C@@]4(F)[C@@H](O)C[C@@]32C)[C@](C)(O)C[C@@H](C)CN(C)[C@H](C)[C@@H](O)[C@]1(C)O (stereo partly drawn) | 170 °C |
| CC[C@H]1OC(=O)[C@H](C)[C@@H](O[C@@H]2C[C@](C)(OC)[C@H](O)C(C)O2)[C@H](C)[C@@H](O[C@@H]2O[C@H](C)C[C@@H](N(C)C)[C@H]2O)[C@](C)(O)C[C@@H](C)CN(CCCNC(=O)[C@@]2(O)[C@H](C)CC3C4C[C@H](F)C5=CC(=O)C=C[C@]5(C)C4[C@@H](O)C[C@@]32C)[C@H](C)[C@@H](O)[C@]1(C)O (stereo partly drawn) | 175 to 178 °C |
| CC[C@H]1OC(=O)[C@H](C)[C@@H](O)[C@H](C)C(O[C@@H]2O[C@H](C)C[C@@H](N(C)C)[C@H]2O)[C@](C)(O)C[C@@H](C)CN(CCCNC(=O)[C@@]2(O)[C@H](C)CC3C4C[C@H](F)C5=CC(=O)C=C[C@]5(C)C4[C@@H](O)C[C@@]32C)[C@H](C)[C@@H](O)[C@]1(C)O (stereo partly drawn) | 202 to 204 °C |
| CC[C@H]1OC(=O)[C@H](C)[C@@H](O)[C@H](C)[C@@H](O[C@@H]2O[C@H](C)C[C@@H](N(C)C)[C@H]2OC(=O)CCCCOC(=O)[C@@]2(O)[C@H](C)CC3C4C[C@H](F)C5=CC(=O)C=C[C@]5(C)[C@@]4(Cl)[C@@H](O)C[C@@]32C)[C@](C)(O)C[C@@H](C)CN(C)[C@H](C)[C@@H](O)[C@]1(C)O (stereo partly drawn) [Compound 27] | 130 to 132 °C |
| CC[C@H]1OC(=O)[C@H](C)[C@@H](O[C@@H]2C[C@](C)(OC)[C@H](O)C(C)O2)[C@H](C)[C@@H](O[C@@H]2O[C@H](C)C[C@@H](N(C)C)[C@H]2OC(=O)CCCCOC(=O)[C@@]2(O)[C@H](C)CC3C4C[C@H](F)C5=CC(=O)C=C[C@]5(C)[C@@]4(F)[C@@H](O)C[C@@]32C)[C@](C)(O)C[C@@H](C)CN(C)[C@H](C)[C@@H](O)[C@]1(C)O (stereo partly drawn) | 159 to 160 °C |
| CC[C@H]1OC(=O)[C@H](C)[C@@H](O[C@@H]2C[C@](C)(OC)[C@H](O)C(C)O2)[C@H](C)[C@@H](O[C@@H]2O[C@H](C)C[C@@H](N(C)C)[C@H]2O)[C@](C)(O)C[C@@H](C)CN(CCCNC(=O)[C@@]2(O)[C@H](C)CC3C4C[C@H](F)C5=CC(=O)C=C[C@]5(C)[C@@]4(Cl)[C@@H](O)C[C@@]32C)[C@H](C)[C@@H](O)[C@]1(C)O (stereo partly drawn) | 194 to 202 °C |
| CC[C@H]1OC(=O)[C@H](C)[C@@H](OC(=O)CCCCOC(=O)[C@@]2(O)[C@H](C)CC3C4CCC5=CC(=O)C=C[C@]5(C)[C@@]4(F)[C@@H](O)C[C@@]32C)[C@H](C)[C@@H](O[C@@H]2O[C@H](C)C[C@@H](N(C)C)[C@H]2OC(C)=O)[C@](C)(O)C[C@@H](C)CN(C)[C@H](C)[C@@H](O)[C@]1(C)O (stereo partly drawn) | 174 to 175 °C |

Tested on: interleukin-2 production induced by the stimulation via CD3 receptor
Assay: Assay of inhibition of interleukin-2 production
Format: cell-based, mouse
Conditions: not given
Method: Assay of Inhibition of Interleukin-2 Production
Onto a 96-well plate (Nunc) 15 ng of 2C11 antibodies (Pharmingen) per well were added and left to adsorb in PBS buffer (pH=7.4) overnight at 4° C. PBS was removed, the plate was washed with RPMI medium and then 50,000 cells per well were added and incubated in the medium with and without a dilution of the test compounds. The concentration of IL-2 in the supernatant was measured by ELISA specific for mouse IL-2 (R&D Systems).

| Structure (SMILES) | inhibition of interleukin-2 production |
| --- | --- |
| CC[C@H]1OC(=O)[C@H](C)[C@@H](O)[C@H](C)[C@@H](O[C@@H]2O[C@H](C)C[C@@H](N(C)C)[C@H]2OC(=O)CCCCOC(=O)[C@@]2(O)[C@H](C)CC3C4C[C@H](F)C5=CC(=O)C=C[C@]5(C)[C@@]4(Cl)[C@@H](O)C[C@@]32C)[C@](C)(O)C[C@@H](C)CN(C)[C@H](C)[C@@H](O)[C@]1(C)O (stereo partly drawn) [Compound 27] | demonstrate an inhibition |

Molecular target: T1, alpha isoform of human glucocorticoid receptor (Homo sapiens, UniProt P04150)
T1 construct: expressed in transfected cells; host or cells: COS-1 cells, transient transfection with pcDNA3.1 hygro(+) carrying the GR alpha cDNA
T1 sequence (P04150 1-777): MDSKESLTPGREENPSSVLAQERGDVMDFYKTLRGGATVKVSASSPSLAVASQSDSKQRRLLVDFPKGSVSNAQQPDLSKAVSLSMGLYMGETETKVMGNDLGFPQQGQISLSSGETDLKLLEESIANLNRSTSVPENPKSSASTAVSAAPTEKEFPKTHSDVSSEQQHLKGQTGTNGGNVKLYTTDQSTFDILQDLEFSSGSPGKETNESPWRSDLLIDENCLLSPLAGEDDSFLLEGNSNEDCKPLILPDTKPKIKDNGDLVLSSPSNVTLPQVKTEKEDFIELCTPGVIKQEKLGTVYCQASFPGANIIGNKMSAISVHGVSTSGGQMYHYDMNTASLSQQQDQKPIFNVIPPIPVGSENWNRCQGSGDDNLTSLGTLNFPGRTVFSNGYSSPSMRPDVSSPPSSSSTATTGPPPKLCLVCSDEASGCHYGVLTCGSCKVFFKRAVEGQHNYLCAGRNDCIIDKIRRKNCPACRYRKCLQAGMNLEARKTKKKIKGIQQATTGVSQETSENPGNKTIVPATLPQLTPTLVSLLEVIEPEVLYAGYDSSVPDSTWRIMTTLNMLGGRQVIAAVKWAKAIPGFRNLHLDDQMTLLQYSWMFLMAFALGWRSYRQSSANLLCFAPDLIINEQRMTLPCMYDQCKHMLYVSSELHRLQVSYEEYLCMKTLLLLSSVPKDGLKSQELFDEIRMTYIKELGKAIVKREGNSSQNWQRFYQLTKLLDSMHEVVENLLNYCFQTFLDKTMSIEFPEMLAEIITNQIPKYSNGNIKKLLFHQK
Assay: Assay of binding to the human glucocorticoid receptor ([3H] dexamethasone competition in transfected COS-1 cells)
Conditions: 24 nM [3H] dexamethasone
Text: Assay of Binding to the Human Glucocorticoid Receptor
The gene for alpha isoform of human glucocorticoid receptor was cloned by reverse polymerase chain reaction. The total RNA was isolated from human peripheral blood lymphocites according to the instructions of the manufacturer (Qiagen), transcripted into cDNA with AMV reverse transcriptase (Roche) and the gene was multiplied by specific primers
The obtained reaction product was cloned into XhoI/BamHI site of Bluescript KS plasmid (Stratagene), subjected to sequencing by dideoxy fluorescent method with M13 and M13 rev primers (Mycrosynth) and then it was cloned into XhoI/BamHI site of pcDNA3.1 hygro(+)plasmid (Invitrogen). 1×10^5 COS-1 cells were seeded onto a 12-well plate (Falcon) in DMEM medium (Life Technologies) with 10% FBS (Biowhitaker) and cultivated up to a 70% confluence at 37° C. in an atmosphere with 5% CO2. The medium was removed and 1 μg of DNA, 7 μl of PLUS reagent and 2 μl of Lipofectamine (Life Technologies) in 500 μl DMEM were added per well. The cells were incubated at 37° C. in an atmosphere with 5% CO2 and after 5 hours the same volume of 20% FBS/DMEM was added. After 24 hours the medium was completely changed. 48 hours after the transfection, the test compounds in different concentrations and 24 nM [^3H] dexamethasone (Pharmacia) in DMEM medium were added. The cells were incubated for 90 minutes at 37° C. in an atmosphere with 5% CO2, washed three times with PBS buffer (Sigma), cooled to 4° C. (pH=7.4) and then lyzed in Tris buffer (pH=8.0) (Sigma) with 0.2% SDS (Sigma). After the addition of UltimaGold XR (Packard) scintillation liquid, the residual radioactivity was read in a Tricarb (Packard) β-scintillation counter.

| Structure (SMILES) | competition with radioactive dexamethasone in the binding site on the glucocorticoid receptor |
| --- | --- |
| CC[C@H]1OC(=O)[C@H](C)[C@@H](O)[C@H](C)[C@@H](O[C@@H]2O[C@H](C)C[C@@H](N(C)C)[C@H]2OC(=O)CCCCOC(=O)[C@@]2(O)[C@H](C)CC3C4C[C@H](F)C5=CC(=O)C=C[C@]5(C)[C@@]4(Cl)[C@@H](O)C[C@@]32C)[C@](C)(O)C[C@@H](C)CN(C)[C@H](C)[C@@H](O)[C@]1(C)O (stereo partly drawn) [Compound 27] | able to compete with radioactive dexamethasone |

Tested on: mouse T-cell hybridoma 13
Assay: Assay of inhibition of mouse T-cell hybridoma 13 proliferation as a result of apoptose induction
Format: cell-based
Conditions: [3H] thymidine incorporation
Method: Assay of Inhibition of Mouse T-Cell Hybridoma 13 Proliferation as a Result of Apoptose Induction
In a 96-well plate triplicates of test steroid dilution in RPMI medium (Immunoloski zavod) with […] were performed. To the solutions of compounds 20 000 cells per well were added and incubated overnight at 37° C. in an atmosphere with 5% CO2, then 1 μCi of [^3H] thymidine (Pharmacia) was added and it was incubated for additional 3 hours. The cells were harvested by sucking over GF/C filter (Packard). Onto each well 30 μl of Microscynt O scintillation liquid (Packard) were added and the incorporated radioactivity was measured on a β-scintillation counter (Packard). The specifity of apoptose induction by glucocorticoids was proven by antagonising the proliferation inhibition with mifepristone (Sigma).

| Structure (SMILES) | inhibition of cell hybridoma 13 proliferation |
| --- | --- |
| CC[C@H]1OC(=O)[C@H](C)[C@@H](O)[C@H](C)[C@@H](O[C@@H]2O[C@H](C)C[C@@H](N(C)C)[C@H]2OC(=O)CCCCOC(=O)[C@@]2(O)[C@H](C)CC3C4C[C@H](F)C5=CC(=O)C=C[C@]5(C)[C@@]4(Cl)[C@@H](O)C[C@@]32C)[C@](C)(O)C[C@@H](C)CN(C)[C@H](C)[C@@H](O)[C@]1(C)O (stereo partly drawn) [Compound 27] | demonstrated an inhibition |
